# Data: PMC6152937 (Bioorganic & medicinal chemistry letters, 2018)
# Experiments:
# [1] = biological target: 5-HT1B (Homo sapiens, UniProt P28222); assay: Radio-ligand binding assay screen; details: cloned receptor; considered inactive
# [2] = biological target: 5-HT1E (Homo sapiens, UniProt P28566); assay: Radio-ligand binding assay screen; details: cloned receptor; considered inactive
# [3] = biological target: 5-HT1A (Homo sapiens, UniProt P08908); assay: Radio-ligand binding assay screen; details: cloned receptor; considered inactive
# [4] = biological target: Dopamine receptor D5 (Homo sapiens, UniProt P21918); assay: Radio-ligand binding assay screen; details: cloned receptor; considered inactive
# [5] = biological target: 5-HT5A (Homo sapiens, UniProt P47898); assay: Radio-ligand binding assay screen; details: cloned receptor; considered inactive
# [6] = biological target: Histamine receptor H4 (Homo sapiens, UniProt Q9H3N8); assay: Radio-ligand binding assay screen; details: cloned receptor; considered inactive
# Chain of Histamine receptor H4 (Q9H3N8 whole entry): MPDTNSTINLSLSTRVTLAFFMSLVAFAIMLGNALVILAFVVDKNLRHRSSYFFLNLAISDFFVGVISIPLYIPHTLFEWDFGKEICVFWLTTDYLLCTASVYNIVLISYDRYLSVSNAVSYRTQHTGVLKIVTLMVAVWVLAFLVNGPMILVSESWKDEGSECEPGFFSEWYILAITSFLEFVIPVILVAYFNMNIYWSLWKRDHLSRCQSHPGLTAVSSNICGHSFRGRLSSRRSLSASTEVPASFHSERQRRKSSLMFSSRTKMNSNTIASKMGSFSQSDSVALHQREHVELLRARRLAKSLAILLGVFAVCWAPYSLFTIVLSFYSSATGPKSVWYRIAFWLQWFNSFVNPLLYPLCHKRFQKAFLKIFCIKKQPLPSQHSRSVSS
# [7] = biological target: 5-HT6 (Homo sapiens, UniProt P50406); assay: Radio-ligand binding assay screen; details: cloned receptor; considered inactive
# [8] = biological target: DAT (Homo sapiens, UniProt Q01959); assay: Radio-ligand binding assay screen; details: cloned transporter; considered inactive
# [9] = biological target: 5-HT3 (Homo sapiens, UniProt P46098); assay: Radio-ligand binding assay screen; details: cloned receptor; considered inactive
# [10] = biological target: Muscarinic receptor MS (Homo sapiens, UniProt P08912); assay: Radio-ligand binding assay screen; details: cloned receptor; considered inactive
# [11] = biological target: Muscarinic receptor M1 (Homo sapiens, UniProt P11229); assay: Radio-ligand binding assay screen; details: cloned receptor; considered inactive
# [12] = biological target: Histamine receptor H1 (Homo sapiens, UniProt P35367); assay: Radio-ligand binding assay screen; details: cloned receptor; considered inactive
# Chain of Histamine receptor H1 (P35367 whole entry): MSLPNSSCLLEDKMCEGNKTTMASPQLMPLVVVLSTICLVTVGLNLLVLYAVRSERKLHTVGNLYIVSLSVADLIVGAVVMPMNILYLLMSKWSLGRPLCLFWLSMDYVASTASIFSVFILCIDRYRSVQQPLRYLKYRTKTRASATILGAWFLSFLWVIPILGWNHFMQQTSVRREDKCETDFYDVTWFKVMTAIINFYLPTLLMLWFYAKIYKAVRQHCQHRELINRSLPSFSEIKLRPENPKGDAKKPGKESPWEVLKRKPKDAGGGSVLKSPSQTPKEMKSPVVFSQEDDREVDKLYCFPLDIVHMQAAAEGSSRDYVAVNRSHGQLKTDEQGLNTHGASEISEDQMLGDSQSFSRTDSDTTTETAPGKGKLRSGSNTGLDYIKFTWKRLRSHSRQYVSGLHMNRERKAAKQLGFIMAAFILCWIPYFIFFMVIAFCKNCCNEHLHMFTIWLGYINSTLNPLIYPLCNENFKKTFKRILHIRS
# [13] = biological target: α1Δ adrenoreceptor (Homo sapiens, UniProt P25100); assay: Radio-ligand binding assay screen; details: cloned receptor; considered inactive
# [14] = biological target: Dopamine receptor D3 (Homo sapiens, UniProt P35462); assay: Radio-ligand binding assay screen; details: cloned receptor; considered inactive
# Chain of Dopamine receptor D3 (P35462 whole entry): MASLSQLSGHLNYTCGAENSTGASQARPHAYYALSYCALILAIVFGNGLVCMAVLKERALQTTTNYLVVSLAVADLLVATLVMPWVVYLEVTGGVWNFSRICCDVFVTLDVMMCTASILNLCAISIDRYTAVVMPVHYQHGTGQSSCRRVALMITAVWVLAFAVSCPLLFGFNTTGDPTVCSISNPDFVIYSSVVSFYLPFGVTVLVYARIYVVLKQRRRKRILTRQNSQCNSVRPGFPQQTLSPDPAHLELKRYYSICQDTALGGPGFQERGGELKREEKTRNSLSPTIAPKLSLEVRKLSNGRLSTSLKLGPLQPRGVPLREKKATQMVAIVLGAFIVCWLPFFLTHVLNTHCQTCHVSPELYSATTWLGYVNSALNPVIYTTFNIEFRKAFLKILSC
# [15] = biological target: Dopamine receptor D4 (Homo sapiens, UniProt P21917); assay: Radio-ligand binding assay screen; details: cloned receptor; considered inactive
# [16] = biological target: α2A adrenoreceptor (Homo sapiens, UniProt P08913); assay: Radio-ligand binding assay screen; details: cloned receptor; considered inactive
# [17] = biological target: 5-HT2C (Homo sapiens, UniProt P28335); assay: Radio-ligand binding assay screen; details: cloned receptor; considered inactive
# Chain of 5-HT2C (P28335 33-458): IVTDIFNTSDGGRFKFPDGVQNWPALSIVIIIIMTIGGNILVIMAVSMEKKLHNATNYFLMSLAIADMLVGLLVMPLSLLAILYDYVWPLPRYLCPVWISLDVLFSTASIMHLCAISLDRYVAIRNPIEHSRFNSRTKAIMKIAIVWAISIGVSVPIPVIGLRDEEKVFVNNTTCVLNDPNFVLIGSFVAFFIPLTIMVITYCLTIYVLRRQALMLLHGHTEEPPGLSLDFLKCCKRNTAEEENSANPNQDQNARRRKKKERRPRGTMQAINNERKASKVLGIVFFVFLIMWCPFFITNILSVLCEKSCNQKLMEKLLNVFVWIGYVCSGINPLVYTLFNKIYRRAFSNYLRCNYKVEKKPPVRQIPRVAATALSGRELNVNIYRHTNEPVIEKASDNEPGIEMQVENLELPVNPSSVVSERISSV
# [18] = biological target: β2 adrenoreceptor (Homo sapiens, UniProt P07550); assay: Radio-ligand binding assay screen; details: cloned receptor; considered inactive
# [19] = biological target: NET (Homo sapiens, UniProt P23975); assay: Radio-ligand binding assay screen; details: cloned transporter; considered inactive
# [20] = biological target: 5-HT2B (Homo sapiens, UniProt P41595); assay: Radio-ligand binding assay screen; details: cloned receptor; considered inactive
# [21] = biological target: Histamine receptor H3 (Homo sapiens, UniProt Q9Y5N1); assay: Radio-ligand binding assay screen; details: cloned receptor; considered inactive
# [22] = biological target: α1B adrenoreceptor (Homo sapiens, UniProt P35368); assay: Radio-ligand binding assay screen; details: cloned receptor; considered inactive
# Chain of α1B adrenoreceptor (P35368 whole entry): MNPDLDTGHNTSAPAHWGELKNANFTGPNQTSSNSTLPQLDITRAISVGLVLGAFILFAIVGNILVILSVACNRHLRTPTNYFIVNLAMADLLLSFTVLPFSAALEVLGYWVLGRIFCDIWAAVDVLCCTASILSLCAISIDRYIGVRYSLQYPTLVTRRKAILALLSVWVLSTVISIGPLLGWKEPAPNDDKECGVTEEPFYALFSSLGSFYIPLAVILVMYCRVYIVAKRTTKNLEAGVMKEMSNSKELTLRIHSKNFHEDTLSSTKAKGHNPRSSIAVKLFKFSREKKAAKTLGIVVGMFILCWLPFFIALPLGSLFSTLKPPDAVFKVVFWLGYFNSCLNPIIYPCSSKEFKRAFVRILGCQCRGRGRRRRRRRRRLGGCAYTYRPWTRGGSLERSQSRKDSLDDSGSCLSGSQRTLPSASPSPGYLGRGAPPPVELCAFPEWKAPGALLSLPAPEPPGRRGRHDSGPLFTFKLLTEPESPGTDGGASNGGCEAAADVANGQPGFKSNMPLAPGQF
# [23] = biological target: β1 adrenoreceptor (Homo sapiens, UniProt P08588); assay: Radio-ligand binding assay screen; details: cloned receptor; considered inactive
# [24] = biological target: KOR (Homo sapiens, UniProt P41145); assay: Radio-ligand binding assay screen; details: cloned receptor; considered inactive
# [25] = biological target: β3 adrenoreceptor (Homo sapiens, UniProt P13945); assay: Radio-ligand binding assay screen; details: cloned receptor; considered inactive
# [26] = biological target: 5-HT7 (Homo sapiens, UniProt P34969); assay: Radio-ligand binding assay screen; details: cloned receptor; considered inactive
# [27] = biological target: Dopamine receptor D1 (Homo sapiens, UniProt P21728); assay: Radio-ligand binding assay screen; details: cloned receptor; considered inactive
# [28] = biological target: Muscarinic receptor M4 (Homo sapiens, UniProt P08173); assay: Radio-ligand binding assay screen; details: cloned receptor; considered inactive
# [29] = biological target: SERT (Homo sapiens, UniProt P31645); assay: Radio-ligand binding assay screen; details: cloned transporter; considered inactive
# Chain of SERT (P31645 whole entry): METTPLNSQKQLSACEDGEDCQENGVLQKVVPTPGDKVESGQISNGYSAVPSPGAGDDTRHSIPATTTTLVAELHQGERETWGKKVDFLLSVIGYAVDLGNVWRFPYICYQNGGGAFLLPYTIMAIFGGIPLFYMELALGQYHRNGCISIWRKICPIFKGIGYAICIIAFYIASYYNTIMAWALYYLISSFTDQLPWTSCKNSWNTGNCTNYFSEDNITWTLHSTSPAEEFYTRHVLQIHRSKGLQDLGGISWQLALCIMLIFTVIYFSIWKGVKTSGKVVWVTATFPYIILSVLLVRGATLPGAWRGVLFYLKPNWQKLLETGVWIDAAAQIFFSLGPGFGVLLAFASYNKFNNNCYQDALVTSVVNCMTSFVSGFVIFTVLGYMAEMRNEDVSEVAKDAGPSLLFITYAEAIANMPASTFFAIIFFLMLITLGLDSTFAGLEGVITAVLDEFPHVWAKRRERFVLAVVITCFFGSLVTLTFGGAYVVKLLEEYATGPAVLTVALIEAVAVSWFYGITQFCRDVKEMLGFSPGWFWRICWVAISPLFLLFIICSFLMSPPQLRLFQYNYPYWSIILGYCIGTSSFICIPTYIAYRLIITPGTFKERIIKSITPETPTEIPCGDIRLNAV
# [30] = biological target: rSigma1 (Rattus norvegicus, UniProt Q9R0C9); assay: Radio-ligand binding assay screen; details: cloned receptor; considered inactive
# Chain of rSigma1 (Q9R0C9 whole entry): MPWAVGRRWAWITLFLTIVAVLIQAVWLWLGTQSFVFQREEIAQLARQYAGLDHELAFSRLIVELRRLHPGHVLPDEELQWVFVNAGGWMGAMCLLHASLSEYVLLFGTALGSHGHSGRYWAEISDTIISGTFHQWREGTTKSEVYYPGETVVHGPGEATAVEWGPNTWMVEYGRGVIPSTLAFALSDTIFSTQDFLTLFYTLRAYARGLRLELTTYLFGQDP
# [31] = biological target: Dopamine receptor D2 (Homo sapiens, UniProt P14416); assay: Radio-ligand binding assay screen; details: cloned receptor; considered inactive
# [32] = biological target: 5-HT1D (Homo sapiens, UniProt P28221); assay: Radio-ligand binding assay screen; details: cloned receptor; considered inactive
# [33] = biological target: DOR (Homo sapiens, UniProt P41143); assay: Radio-ligand binding assay screen; details: cloned receptor; considered inactive
# [34] = biological target: Muscarinic receptor M3 (Homo sapiens, UniProt P20309); assay: Radio-ligand binding assay screen; details: cloned receptor; considered inactive
# [35] = biological target: Histamine receptor H2 (Homo sapiens, UniProt P25021); assay: Radio-ligand binding assay screen; details: cloned receptor; considered inactive
# [36] = biological target: α1A adrenoreceptor (Homo sapiens, UniProt P35348); assay: Radio-ligand binding assay screen; details: cloned receptor; considered inactive
# [37] = biological target: Muscarinic receptor M2 (Homo sapiens, UniProt P08172); assay: Radio-ligand binding assay screen; details: cloned receptor; considered inactive
# [38] = biological target: MOR (Homo sapiens, UniProt P35372); assay: Radio-ligand binding assay screen; details: cloned receptor; considered inactive
# [39] = biological target: 5-HT2A (Homo sapiens, UniProt P28223); assay: Radio-ligand binding assay screen; details: cloned receptor; considered inactive
# [40] = biological target: rSigma2 (Rattus norvegicus, UniProt Q5U3Y7); assay: Radio-ligand binding assay screen; details: cloned receptor; considered inactive
# [41] = biological target: T1, human GABAB receptor (Homo sapiens, UniProt Q9UBS5); details: concentrations up to 100 μM, racemic mixtures
# T1 sequence (Q9UBS5 15-961 limits assumed): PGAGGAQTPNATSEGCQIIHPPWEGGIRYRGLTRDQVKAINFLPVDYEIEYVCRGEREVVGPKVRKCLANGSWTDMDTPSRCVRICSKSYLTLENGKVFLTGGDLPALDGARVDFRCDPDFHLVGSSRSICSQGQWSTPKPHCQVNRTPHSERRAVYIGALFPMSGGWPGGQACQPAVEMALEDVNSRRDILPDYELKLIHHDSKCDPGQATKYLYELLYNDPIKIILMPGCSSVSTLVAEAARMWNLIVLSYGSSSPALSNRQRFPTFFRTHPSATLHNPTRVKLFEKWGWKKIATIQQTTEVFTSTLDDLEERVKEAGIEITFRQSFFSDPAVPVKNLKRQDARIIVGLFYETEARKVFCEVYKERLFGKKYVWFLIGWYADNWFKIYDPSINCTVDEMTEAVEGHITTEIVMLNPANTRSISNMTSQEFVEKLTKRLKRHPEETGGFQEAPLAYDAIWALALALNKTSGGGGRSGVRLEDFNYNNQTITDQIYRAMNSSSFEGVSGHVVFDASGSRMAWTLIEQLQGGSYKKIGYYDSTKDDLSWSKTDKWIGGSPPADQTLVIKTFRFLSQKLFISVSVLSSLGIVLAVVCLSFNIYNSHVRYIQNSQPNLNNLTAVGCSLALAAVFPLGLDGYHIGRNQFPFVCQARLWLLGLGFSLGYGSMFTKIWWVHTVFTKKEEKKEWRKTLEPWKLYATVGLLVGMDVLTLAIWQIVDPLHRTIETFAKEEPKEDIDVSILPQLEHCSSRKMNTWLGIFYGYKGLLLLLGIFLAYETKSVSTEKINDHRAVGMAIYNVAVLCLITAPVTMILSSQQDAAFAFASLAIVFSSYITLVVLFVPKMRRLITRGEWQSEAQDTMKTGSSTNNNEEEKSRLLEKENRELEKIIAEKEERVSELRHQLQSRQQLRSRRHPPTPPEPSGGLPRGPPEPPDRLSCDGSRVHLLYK
# T1 sequence (O75899 42-941 partner): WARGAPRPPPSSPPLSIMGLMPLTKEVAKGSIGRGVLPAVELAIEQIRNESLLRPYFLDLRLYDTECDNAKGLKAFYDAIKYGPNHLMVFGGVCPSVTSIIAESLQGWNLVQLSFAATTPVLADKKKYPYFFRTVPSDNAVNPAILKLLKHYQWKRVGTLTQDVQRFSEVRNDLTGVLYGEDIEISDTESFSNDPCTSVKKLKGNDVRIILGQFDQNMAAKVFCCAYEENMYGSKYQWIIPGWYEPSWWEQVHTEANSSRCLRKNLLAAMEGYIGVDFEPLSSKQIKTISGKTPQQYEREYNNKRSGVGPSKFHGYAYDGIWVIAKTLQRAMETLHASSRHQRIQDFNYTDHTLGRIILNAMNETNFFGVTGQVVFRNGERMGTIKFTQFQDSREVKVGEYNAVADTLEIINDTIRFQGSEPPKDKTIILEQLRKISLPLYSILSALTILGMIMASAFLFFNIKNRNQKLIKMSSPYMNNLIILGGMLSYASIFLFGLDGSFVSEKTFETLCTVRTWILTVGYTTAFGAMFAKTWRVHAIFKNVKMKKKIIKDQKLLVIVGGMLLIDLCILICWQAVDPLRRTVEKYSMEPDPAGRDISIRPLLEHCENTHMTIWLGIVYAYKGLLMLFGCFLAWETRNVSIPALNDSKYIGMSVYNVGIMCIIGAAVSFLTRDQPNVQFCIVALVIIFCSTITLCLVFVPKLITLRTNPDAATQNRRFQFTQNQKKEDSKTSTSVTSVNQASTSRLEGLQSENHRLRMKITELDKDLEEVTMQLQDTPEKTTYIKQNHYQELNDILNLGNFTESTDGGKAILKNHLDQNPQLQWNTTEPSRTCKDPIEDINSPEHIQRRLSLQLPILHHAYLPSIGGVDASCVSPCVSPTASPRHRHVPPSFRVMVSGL
# [42] = biological target: T1, human GABAB receptor; details: read-out: GABAB EC50; agonist activity, HEK293/Cre-luc, ± standard error; ref [19]; cited from earlier work
compound,measurement,setting,value
CC(=O)c1ccc(C(O)C(F)(F)C(=O)C23CC4CC(CC(C4)C2)C3)cc1 (stereo not drawn) [Compound 3],"inhibition, 5-HT1B",[1],less than 30%
same,"inhibition, 5-HT1E",[2],less than 30%
same,"inhibition, 5-HT1A",[3],less than 30%
same,"inhibition, D5",[4],less than 30%
same,"inhibition, 5-HT5A",[5],less than 30%
same,"inhibition, H4",[6],less than 30%
same,"inhibition, 5-HT6",[7],less than 30%
same,"inhibition, DAT",[8],less than 30%
same,"inhibition, 5-HT3",[9],less than 30%
same,"inhibition, MS",[10],less than 30%
same,"inhibition, M1",[11],less than 30%
same,"inhibition, H1",[12],less than 30%
same,"inhibition, α1Δ",[13],less than 30%
same,"inhibition, D3",[14],less than 30%
same,"inhibition, D4",[15],less than 30%
same,"inhibition, α2A",[16],less than 30%
same,"inhibition, 5-HT2C",[17],less than 30%
same,"inhibition, β2",[18],less than 30%
same,"inhibition, NET",[19],less than 30%
same,"inhibition, 5-HT2B",[20],less than 30%
same,"inhibition, H3",[21],less than 30%
same,"inhibition, α1B",[22],less than 30%
same,"inhibition, β1",[23],less than 30%
same,"inhibition, KOR",[24],less than 30%
same,"inhibition, β3",[25],less than 30%
same,"inhibition, 5-HT7",[26],less than 30%
same,"inhibition, D1",[27],less than 30%
same,"inhibition, M4",[28],less than 30%
same,"inhibition, SERT",[29],less than 30%
same,"inhibition, rSigma1",[30],less than 30%
same,"inhibition, D2",[31],less than 30%
same,"inhibition, 5-HT1D",[32],less than 30%
same,"inhibition, DOR",[33],less than 30%
same,"inhibition, M3",[34],less than 30%
same,"inhibition, H2",[35],less than 30%
same,"inhibition, α1A",[36],less than 30%
same,"inhibition, M2",[37],less than 30%
same,"inhibition, MOR",[38],less than 30%
same,"inhibition, 5-HT2A",[39],less than 30%
same,"inhibition, rSigma2",[40],less than 30%
CCc1ccc(C(O)C(F)(F)C(=O)C23CC4CC(CC(C4)C2)C3)cc1 (stereo not drawn) [Compound 4],Agonist activity at the GABAB receptor (in words),[41],inactive
O=C(C12CC3CC(CC(C3)C1)C2)C(F)(F)C(O)/C=C/c1ccccc1 (stereo not drawn) [Compound 9],EC50,[42],40 ± 3.59 µM
CC(C)(C)OC(=O)NC(c1ccccc1)C(F)(F)C(=O)c1ccc2ccccc2c1 (stereo not drawn) [Compound 11],"inhibition, 5-HT1B",[1],less than 30%
same,"inhibition, 5-HT1E",[2],less than 30%
same,"inhibition, 5-HT1A",[3],less than 30%
same,"inhibition, D5",[4],less than 30%
same,"inhibition, 5-HT5A",[5],less than 30%
same,"inhibition, H4",[6],less than 30%
same,"inhibition, 5-HT6",[7],less than 30%
same,"inhibition, DAT",[8],less than 30%
same,"inhibition, 5-HT3",[9],less than 30%
same,"inhibition, MS",[10],less than 30%
same,"inhibition, M1",[11],less than 30%
same,"inhibition, H1",[12],less than 30%
same,"inhibition, α1Δ",[13],less than 30%
same,"inhibition, D3",[14],less than 30%
same,"inhibition, D4",[15],less than 30%
same,"inhibition, α2A",[16],less than 30%
same,"inhibition, 5-HT2C",[17],less than 30%
same,"inhibition, β2",[18],less than 30%
same,"inhibition, NET",[19],less than 30%
same,"inhibition, 5-HT2B",[20],less than 30%
same,"inhibition, H3",[21],less than 30%
same,"inhibition, α1B",[22],less than 30%
same,"inhibition, β1",[23],less than 30%
same,"inhibition, KOR",[24],less than 30%
same,"inhibition, β3",[25],less than 30%
same,"inhibition, 5-HT7",[26],less than 30%
same,"inhibition, D1",[27],less than 30%
same,"inhibition, M4",[28],less than 30%
same,"inhibition, SERT",[29],less than 30%
same,"inhibition, rSigma1",[30],less than 30%
same,"inhibition, D2",[31],less than 30%
same,"inhibition, 5-HT1D",[32],less than 30%
same,"inhibition, DOR",[33],less than 30%
same,"inhibition, M3",[34],less than 30%
same,"inhibition, H2",[35],less than 30%
same,"inhibition, α1A",[36],less than 30%
same,"inhibition, M2",[37],less than 30%
same,"inhibition, MOR",[38],less than 30%
same,"inhibition, 5-HT2A",[39],less than 30%
same,"inhibition, rSigma2",[40],less than 30%
C/C=C/C=C/C(NCc1ccccc1)C(F)(F)C(=O)c1ccc2ccccc2c1 (stereo not drawn) [Compound 16],Agonist activity at the GABAB receptor (in words),[41],inactive
O=C(c1ccc(Cl)cc1)C(F)(F)C(NCc1ccccc1)c1ccccc1 (stereo not drawn) [Compound 17],Agonist activity at the GABAB receptor (in words),[41],moderate activity
